Here are results for six compounds from patent US20250241109A1, “Electron Transporting Self-Assembling Monolayer Compound for Use in Optoelectronic and/or Photoelectrochemical Devices and Manufacture Thereof” (Kaunas University of Technology, priority 2024, published 2025).

Common to all, as to format: physicochemical
A short description of data set [1]: Solubility in organic solvents.
Data set [2] is described as follows: Cyclic voltammetry and optical band gap: energy levels in DMF and DCM solution. The conditions noted are these: for EHOMO: EHOMO=ELUMO+Eg opt; for ELUMO: calculated from E vs Fc/Fc^+ with conversion factors; for λ: edge of electronic absorption spectrum in solution; for E vs Fc/Fc^+: glassy carbon electrode, 0.1 M tetrabutylammonium hexafluorophosphate, calibrated with ferrocene; for Eg^opt-sol: optical band gap, Eg opt=1240/λ. As for the experimental part: CV measurements were carried out by a three-electrode assembly cell from Bio-Logic SP-150. The measurements were carried out at a glassy carbon electrode in DMF and DCM solutions containing 0.1 M tetrabutylammonium hexafluorophosphate as an electrolyte, Pt as the counter electrode and as the reference electrode. Each measurement was calibrated with ferrocene (Fc) and potentials calculated to Fc^+/Fc. Conversion factors: ferrocene in DCM vs SCE 0.46, DMF vs SCE 0.45, SCE vs SHE: 0.244, SHE vs vacuum: 4.43 (N. G. Connelly, W. E. Geiger, Chemical Reviews 1996, 96, 877; V. V. Pavlishchuk, A. W. Addison, Inorganica Chimica Acta 2000, 298, 97). The half-wave potential E1/2vs Fc was obtained as an average value between maxima of cathodic and anodic potentials: E1/2 vs Fc=1/2([…]). The optical band gaps Eg opt=1240/λ was estimated from the edges of electronic absorption spectra in DCM and DMF solutions. ELUMO was calculated from the equation ELUMO=(E vs Fc/Fc^++(solvent vs SCE)+0.244+4.43. EHOMO calculated from the equation EHOMO=ELUMO[…].

Data set [3] is described as follows: Thermogravimetric analysis (TGA). The conditions noted are these: scan rate 10 K min^−1, nitrogen atmosphere. As for the experimental part: TGA was performed on a Q50 thermogravimetric analyzer (TA Instruments) at a scan rate of 10 K min^−1 in the nitrogen atmosphere.
Data set [4] is described as follows: UV/vis absorption and transmittance spectra. The text has this:
In the n-i-p structure PSC light first posses through the ETL, thus it is important to minimize parasitic absorption of this layer.

Data set [5] is described as follows: Contact potential difference (CPD) surface mapping on ITO. The text has this: The surface mapping of contact potential difference (CPD) values of V1264 on ITO confirmed uniformity of SAM coverage. The rather homogenous pattern was proportional to the narrow work function (WF) fluctuation in a specific area (˜4.45 eV), overall indicating a good V1264 coverage on ITO.

A short description of data set [6]: Water contact angle of ITO/SAM surface. The conditions noted are these: coated onto ITO, washed to remove unbound molecules. The text has this:
It is noted that all the samples were washed with respective solvents to remove unbounded SAM molecules from the ITO substrate. […] The higher hydrophobicity of ITO/SAM substrate will affect the crystallization and morphology of perovskite film.^[21,22] The more hydrophobic surface (less wetting) of ITO/NDI-SAM surface can suppress the dragging force of perovskite inks, resulting in larger grain-size perovskite crystals, as indicated from top-view scanning electron microscopy (SEM) images in FIG. 6a,b.^[21,22] In addition, the tertbutyl groups of V1264 on the upper side can interact well with the perovskite layer, resulting in less pinholes or voids formed at ITO/V1264/perovskite interface, see FIG. 7.

The mark [7] stands for this setting: CHCl3, organic solvent or mixture, read-out: Solubility in CHCl3.
Where [8] appears, read: DCM, organic solvent or mixture, read-out: Solubility in DCM.
Setting [9] is: THF, organic solvent or mixture, read-out: Solubility in THF.
[10] abbreviates: organic solvent or mixture, methanol, sonicated, read-out: Solubility in Methanol.

Like-named read-outs stand apart in the source and are kept apart here.

As a reminder, the solubility is the dissolved amount per volume that the medium holds. For `CC(C)(C)c1ccc(C(C)(C)C)c(N2C(=O)c3ccc4c5c(ccc(c35)C2=O)C(=O)N(CCP(=O)(O)O)C4=O)c1` [Compound V1624, N-(2,5-di-tert-butyl-phenyl)-N′-(ethyl)-1,4,5,8-naphthalene tetracarboxylic diimide phosphonic acid], in data set [1] (setting [7]), the solubility was at most 5000 µg/mL. In addition, the solubility in data set [1] (setting [8]) was at most 7000 µg/mL. In addition, the solubility in data set [1] (setting [9]) was at most 1000 µg/mL. In data set [2], the EHOMO is reported as −7.11 eV, the ELUMO was −3.96 eV, the λ was 393 nm and the “E vs Fc/Fc^+” value is given as −1.16 V. Further, the “Eg^opt-sol” value in data set [2] is 3.15 eV.

Consider `O=C1c2cc(Br)c3c4c(cc(Br)c(c24)C(=O)N1CP(=O)(O)O)C(=O)N(CP(=O)(O)O)C3=O` [Compound V1486], for which the solubility in data set [1] (organic solvent or mixture, THF, sonicated, read-out: Solubility in THF) was at most 500 µg/mL. For the same compound, the solubility in data set [1] (organic solvent or mixture, isopropanol, sonicated, read-out: Solubility in Isopropanol) was at most 500 µg/mL. In data set [1] (setting [10]), the solubility is at most 700 µg/mL. Further, in data set [2], the EHOMO is listed as −6.76 eV, the ELUMO is listed as −3.86 eV, the λ stood at 426 nm and the “E vs Fc/Fc^+” value is given as −1.26 V. For the same compound, the “Eg^opt-sol” value in data set [2] was determined as 2.90 eV.

Consider `CC(C)(C)c1ccc(C(C)(C)C)c(N2C(=O)c3ccc4c5c(ccc(c35)C2=O)C(=O)N(CP(=O)(O)O)C4=O)c1` [Compound V1264, N-(2,5-di-tert-butyl-phenyl)-N′-(methyl)-1,4,5,8-naphthalene tetracarboxylic diimide phosphonic acid], for which the “95% weight loss temperature” value in data set [3] stood at 356 °C. In addition, the “Absorption in the visible region” value in data set [4] (UV/vis, 10^−4 M anhydrous dichloromethane) is “no apparent absorption in the visible region”. In addition, the “Optical losses (UV-Vis transmittance) of SAM on ITO surface” value in data set [4] (compared to bare ITO and ITO/SnO2 films) is “neglectable optical losses”. The “Work function (WF)” value in data set [5] is about 4.45 eV. Also, the “Water contact angle (surface hydrophobicity)” value in data set [6] is given as “around 78.4 °”. Also, the solubility in data set [1] (setting [7]) is at most 7500 µg/mL; in data set [1] (setting [8]), at most 15000 µg/mL; in data set [1] (setting [9]) it was at most 6500 µg/mL; in data set [1] (chlorobenzene, organic solvent or mixture, read-out: Solubility in Chlorobenzene), at most 13000 µg/mL; in data set [1] (toluene, organic solvent or mixture, read-out: Solubility in Toluene) it was at most 800 µg/mL. The EHOMO in data set [2] is on record as −6.97 eV. The ELUMO in data set [2] is on record as −3.81 eV. Further, the “Voltammogram behaviour in solution” value in data set [2] (during the scans) was “reversible reduction waves”. Also, the λ in data set [2] was determined as 392 nm. Besides, the “E vs Fc/Fc^+” value in data set [2] is reported as −1.34 V. In data set [2], the “Eg^opt-sol” value is given as 3.16 eV.

In the case of `O=C1c2ccc3c4c(ccc(c24)C(=O)N1CCP(=O)(O)O)C(=O)N(CCP(=O)(O)O)C3=O` [Compound V1625, N, N′-bis(ethyl)-1,4,5,8-naphthalene tetracarboxylic diimide diphosphonic acid], the solubility in data set [1] (setting [10]) was at most 500 µg/mL. In addition, in data set [2], the EHOMO is given as −6.91 eV, the ELUMO is −3.79 eV, the λ is 397 nm and the “E vs Fc/Fc^+” value was −1.32 V. In data set [2], the “Eg^opt-sol” value is recorded as 3.12 eV.

Turning to `O=C1c2ccc3c4c(ccc(c24)C(=O)N1CP(=O)(O)O)C(=O)N(CP(=O)(O)O)C3=O` [Compound V1612, N, N′-bi(methyl)-1,4,5,8-naphthalene tetracarboxylic diimide diphosphonic acid], the solubility in data set [1] (setting [10]) was at most 500 µg/mL. In data set [2], the EHOMO was −6.97 eV, the ELUMO was −3.9 eV, the λ is 403 nm and the “E vs Fc/Fc^+” value is recorded as −1.17 V. Also, the “Eg^opt-sol” value in data set [2] is listed as 3.07 eV.

On to `CC(C)(C)c1ccc(C(C)(C)C)c(N2C(=O)c3ccc4c5c(ccc(c35)C2=O)C(=O)N(c2ccc(P(=O)(O)O)cc2)C4=O)c1` [Compound V1635], for which the solubility in data set [1] (setting [7]) is at most 15000 µg/mL. For the same compound, in data set [1] (setting [8]), the solubility was at most 10000 µg/mL. In data set [2], the EHOMO is −6.98 eV, the ELUMO is reported as −3.84 eV, the λ came to 394 nm and the “E vs Fc/Fc^+” value is −1.28 V. For the same compound, the “Eg^opt-sol” value in data set [2] was determined as 3.14 eV.
